US7351699B1, “Use of DHEA or precursors or metabolic derivatives thereof as a depigmenting agent” (L'Oreal, priority 1999, dated 2008)

How the values were obtained:
[1] = test system: pigmentation marks on the skin (back of one hand); test: Clinical evaluation of pigmentation marks (visual overall score 0 to 7 by an expert); type: in vivo; settings: gelled oil-in-water emulsion with 1% by weight DHEA, applied morning and evening for four months to the back of one hand, 20 women 55 to 70 years old, score constant on untreated hand, FIG. 1
Method: (§1) A gelled oil-in-water emulsion, containing 1% by weight of DHEA as sole active agent, was tested on a group of 20 women from 55 to 70 years old. The emulsion was applied morning and evening for four months to the back of one hand.
The marks present on the skin were evaluated before and after treatment by visual observation made by an expert, giving the marks an overall score from 0 to 7 as a function of their number, their size and their intensity (clinical evaluation).

[2] = test system: skin pigmentation (back of one hand); test: Biophysical evaluation by colorimetry (Minolta CR200, parameter b*); type: in vivo; settings: gelled oil-in-water emulsion with 1% by weight DHEA, applied morning and evening for four months to the back of one hand; 20 women 55 to 70 years old; decrease greater than on untreated hand; FIG. 2
Method: as §1
They were also evaluated by colorimetry, using a Minolta CR200 […] (biophysical evaluation). This apparatus describes the colors in a three-dimensional space, using the system of coordinates L, a* and b* recommended by the International Commission on Illumination, in which L* represents the luminance or clarity of the color ([…]), a* is the separation component between green (negative) and red (positive) and is correlated to the skin erythema, and b* varies from blue (negative) to yellow (positive) and represents the skin pigmentation. This parameter b* was used to evaluate the change in the marks in the course of the treatment. It is the result of the average of six individual measurements taken per zone and per measurement period.

## C[C@]12CC[C@H](O)CC1=CC[C@@H]1[C@@H]2CC[C@]2(C)C(=O)CC[C@@H]12 [DHEA, dehydroepiandrosterone]
[1]
  overall clinical score of the pigmentation marks: improvement in the overall clinical score
[2]
  component b of the color of the skin (skin pigmentation): decrease in the component b of the color of the skin
